Assay [1] relates to lens elasticity. The experiment in a line: Pharmacological Test-1: lens elasticity after instillation 3 times per day for 12 to 15 days. The assay is classed as in vivo, C57BL/6J mice. The following applies: for Lens elasticity improvement: 0.03% (w/v) solution, 2.5 μL/eye, right eye, 3 times per day for 12 to 15 days, 8-month-old mice, vs vehicle control; for lens elasticity improving effect: at a concentration of 0.03%. How it is done:
The effects of compounds 1 to 4 on the lens elasticity were examined. The tests were conducted with reference to the methods described in Invest Ophthalmol Vis Sci, 57, 2851-2863, 2016.
A vehicle (aqueous solution) comprising 0.1% (w/v) of ethyl pyruvate, 0.269% (w/v) of sodium dihydrogenphosphate monohydrate (NaH2PO4.H2O), 0.433% (w/v) of di sodium hydrogenphosphate (Na2HPO4), 0.2% (w/v) of hydroxypropyl methylcellulose, 0.5% (w/v) of NaCl, 1.0% (w/v) of polyoxyl 35 castor oil (hereinafter also referred to as “CO35”), and purified water (appropriate amount) was prepared.
Each of compounds 1 to 4 was stirred with the addition of the vehicle to give a 0.03% (w/v) solution.
EV06 was stirred with the addition of the vehicle to give a 0.03% (w/v) solution. (Test method) 1) Each test sample (2.5 μL/eye) was instilled into the right eye of 8-month-old C57BL/6J mice with a Pipetman 3 times per day (around 9:00, 13:00, 17:00) for 12 to 15 days. 2) After the final instillation, the mice were euthanized by carbon dioxide inhalation, and then the eyeballs were extracted and rinsed with Hank's balanced salt solution (HESS). 3) The sclera near the optic nerve was cut with a razor, the lens was removed through the incision, and the removed lens was immersed in HESS. 4) The lens was placed on a glass slide, and an all-in-one fluorescence microscope BZ-9000 (Keyence) was used to capture an image of the lens (Image a). 5) Next, one cover glass (Corning^registered trade mark) 22×22 mm Square) was placed on the lens, and an image in which the thickness of the lens changed due to the weight was similarly captured (Image b). 6) A change in the lens diameter was calculated from the following Equation 1 wherein the lens diameter of Image a is subtracted from the lens diameter of Image b. Then, the lens elasticity improvement of each sample group compared with the vehicle control group was calculated from Equation 2 described below. The mean value of the vehicle control group was based on 5 eyes, the mean value of each of the sample groups of compounds 1 to 4 was based on 10 eyes, and the mean value of EV06 sample group was based on 9 eyes.
Change in lens diameter=Lens diameter in Image b of each test sample−Lens diameter in Image a of each test sample (Equation 1)
Lens elasticity improvement of each sample group=Mean change in lens diameter of each Test sample group−Mean change in lens diameter of Vehicle control group (Equation 2)

In assay [2] the test system is lens elasticity. Put plainly: Pharmacological Test-2: lens elasticity at different concentrations, instillation 3 times per day for 12 to 15 days. The assay is classed as in vivo, C57BL/6J mice. As to conditions: for Lens elasticity improvement: 3 times per day for 12 to 15 days; for lens elasticity improvement compared with 1.5% EV06 group: 0.03% and 0.3% sample groups. How it is done: The effects of Compounds 1, 3, and 4 on the lens elasticity were investigated at different concentrations.
Vehicle A (aqueous solution) comprising 0.1% (w/v) of ethyl pyruvate, 0.269% (w/v) of sodium dihydrogenphosphate monohydrate (NaH2PO4.H2O), 0.433% (w/v) of disodium hydrogenphosphate (Na2HPO4), 0.2% (w/v) of hydroxypropyl methylcellulose, 0.5% (w/v) of NaCl, 0.2% (w/v) of 0035, and purified water (appropriate amount) was prepared.
Vehicle B (emulsion) comprising 0.1% (w/v) of ethyl pyruvate, 0.269% (w/v) of sodium dihydrogenphosphate monohydrate (NaH2PO4.H2O), 0.433% (w/v) of disodium hydrogenphosphate (Na2HPO4), 0.2% (w/v) of hydroxypropyl methylcellulose, 0.5% (w/v) of NaCl, 0.2% (w/v) of CO35, 0.6% benzyl benzoate, and purified water (appropriate amount) was prepared.
Vehicle C (aqueous solution) comprising 0.1% (w/v) of ethyl pyruvate, 0.269% (w/v) of sodium dihydrogenphosphate monohydrate (NaH2PO4.H2O), 0.433% (w/v) of disodium hydrogenphosphate (Na2HPO4), 0.2% (w/v) of hydroxypropyl methylcellulose, 0.5% (w/v) of NaCl, 1.0% (w/v) of 0035, and purified water (appropriate amount) was prepared.
Vehicle D (emulsion) comprising 0.1% (w/v) of ethyl pyruvate, 0.269% (w/v) of sodium dihydrogenphosphate monohydrate (NaH2PO4.H2O), 0.433% (w/v) of disodium hydrogenphosphate (Na2HPO4), 0.2% (w/v) of hydroxypropyl methylcellulose, 0.5% (w/v) of NaCl, 1.0% (w/v) of CO35, 3.0% benzyl benzoate, and purified water (appropriate amount) was prepared.
A diluent (aqueous solution) comprising 0.1% (w/v) of ethyl pyruvate, 0.269% (w/v) of sodium dihydrogenphosphate monohydrate (NaH2PO4.H2O), 0.433% (w/v) of disodium hydrogenphosphate (Na2HPO4), 0.2% (w/v) of hydroxypropyl methylcellulose, 0.5% (w/v) of NaCl, and purified water (appropriate amount) was prepared.
Compound 1 was stirred with the addition of Vehicle C to prepare a 1.5% (w/v) emulsion, and the emulsion was diluted with the diluent to give a 0.3% (w/v) emulsion. Further, the resulting 0.3% (w/v) emulsion was diluted with the diluent to give a 0.03% (w/v) emulsion. Further, the resulting 0.03% (w/v) emulsion was diluted with the diluent to give a 0.003% (w/v) emulsion.
Compound 3 was stirred with the addition of Vehicle C to give a 1.5% (w/v) solution, and the resulting solution was diluted to give a 0.3% (w/v) solution. Further, the resulting 0.3% (w/v) solution was diluted with Vehicle A to give a 0.03% (w/v) solution. Further, the resulting 0.03% (w/v) solution was diluted with Vehicle A to give a 0.003% (w/v) solution.
Compound 4 was stirred with the addition of Vehicle D to give a 1.5% (w/v) emulsion, and the resulting emulsion was diluted with the diluent to prepare a 0.3% (w/v) emulsion. Further, the resulting 0.3% (w/v) emulsion was diluted with the diluent to give a 0.03% (w/v) emulsion. Further, the resulting 0.03% (w/v) emulsion was diluted with the diluent to give a 0.003% (w/v) emulsion.
EV06 was stirred with the addition of Vehicle A to give a 1.5% (w/v) solution, which was used for comparison to the samples of Compound 1 and 3.
EV06 was sonicated with the addition of Vehicle B to give a 1.5% (w/v) emulsion, which was used for comparison to Compound 4 sample.
(Test method) 1) Each test sample (2.5 μL/eye) was instilled into the right eye of 7 to 8-month-old C57BL/6J mice with a Pipetman 3 times per day (around 9:00, 13:00 and 17:00) for 12 to 15 days. 2) After the final instillation, the mice were euthanized by carbon dioxide inhalation, and then the eyeballs were extracted and rinsed with Hank's balanced salt solution (HESS). 3) The sclera near the optic nerve was cut with a razor, the lens was removed through the incision, and the removed lens was immersed in HESS. 4) The lens was placed on a glass slide, and an all-in-one fluorescence microscope BZ-9000 (Keyence) was used to capture an image of the lens (Image a). […]

[3] abbreviates: 0.003% (w/v) sample, 7 to 8-month-old mice.
Where [4] appears, read: 0.03% (w/v) sample, 7 to 8-month-old mice.
Setting [5] is: 0.3% (w/v) sample, 7 to 8-month-old mice.

In the case of `O=C(CCCC[C@@H]1CCSS1)OCCN1CCN(CCO)CC1` [Compound 3], the Lens elasticity improvement came out at 49.9 μm in assay [1], 1.3 μm in assay [2] (setting [3]), 30.7 μm in assay [2] (setting [4]) and 41.8 μm in assay [2] (setting [5]). Moreover, in assay [1], the “lens elasticity improving effect” value is reported as “potent lens elasticity improving effect”. In addition, the “lens elasticity improvement compared with 1.5% EV06 group” value in assay [2] was “equivalent to or better than 1.5% EV06 group”.

As to `CC(C)=CCOC(=O)CCCC[C@@H]1CCSS1` [Compound 1, 3-Methyl-2-buten-1-yl (R)-5-(1,2-dithiolan-3-yl)pentanoate], the Lens elasticity improvement in assay [1] came out at 48.0 μm; in assay [2] (setting [3]) it was 13.0 μm; in assay [2] (setting [4]) it was 37.1 μm; in assay [2] (setting [5]), 36.8 μm. Moreover, in assay [1], the “lens elasticity improving effect” value is on record as “potent lens elasticity improving effect”. For the same compound, the “lens elasticity improvement compared with 1.5% EV06 group” value in assay [2] is on record as “equivalent to or better than 1.5% EV06 group”.

On to `C[N+](C)(C)CCOC(=O)CCCC[C@@H]1CCSS1.[Cl-]` [EV06, Lipoic acid choline ester, reference compound], for which the Lens elasticity improvement in assay [1] worked out at 4.0 μm; in assay [2] (1.5% (w/v) emulsion in Vehicle B, Table 4 (comparison to Compound 4)), 46.8 μm; in assay [2] (1.5% (w/v) solution in Vehicle A, Table 2 (comparison to Compound 1)), 30.8 μm; in assay [2] (1.5% (w/v) solution in Vehicle A, Table 3 (comparison to Compound 3)) it was 18.2 μm. Moreover, in assay [1], the “lens elasticity improving effect” value is recorded as “did not show lens elasticity improving effect”.

These data come from patent US20220151989A1, “LIPOIC ACID PRODRUG” (SANTEN PHARMACEUTICAL CO., LTD., priority 2019, published 2022).
